Entries after “also recorded” stand apart in the source; their conditions may differ.
Columns and labels:
[1] = tested on: bacteria in saliva of healthy volunteers; test: Inhibition of bacterial growth in the saliva in vivo (Example V); conditions: for bacterial colonies from saliva after topical medication: 1 hour, 0.1 ml saliva
Experimental: Five healthy adult volunteers, three men and two women, were asked to refrain from drinking or eating for two hours after breakfast. At the end of two hours, an aliquot of 0.1 ml of saliva was pipetted from the mouth of each volunteer and spread over the surface of a sheep blood agar plate with a sterile plastic loop. The inoculated blood agar plate was incubated in an aerobic atmosphere containing 5% CO2 as pre-medication control. Then 100 mg, 50 mg, 20 mg, 10 mg and 2 mg of penicillin G potassium dry powder, USP grade, were placed in the right buccal pouch with a spatula between the cheek and the lower gum of each volunteer, respectively. The volunteers were asked to retain the dissolved penicillin powder at the site of medication as concentrated as possible, not to be diluted by saliva from other parts of the mouth for one hour.
At the end of one hour, 0.1 ml of saliva from each volunteer was pipetted from the right buccal pouch where the medication was placed, and inoculated and spread onto the surface of a sheep blood agar plate. The inoculum was spread with a sterile plastic loop.

bacteria in human saliva = test: Inhibition of bacterial growth in human saliva in vitro (Example IV); type: cell-based; conditions: for bacterial growth from treated saliva: 1 h, aerobic blood agar
Experimental: For this study, five healthy adult volunteers, three men and two women, were asked to refrain from drinking and eating for two hours after breakfast. At the end of two hours, about five (5) ml of saliva was obtained from the oral cavity of each volunteer. Aliquots of 0.1 ml of saliva were pipetted immediately from each saliva sample and spread over the surface of two 5% sheep blood agar plates with a sterile plastic loop. One inoculated blood agar plate was incubated in an aerobic atmosphere containing 5% CO2, and the other anaerobically at 37° C. for 18 hours, as untreated controls.
Aliquots of 0.2 ml of the saliva from each volunteer's sample were pipetted into sterile test tubes, and labeled from No. 2 to No. 13. Five equal doses of dry powder of the USP grade penicillin G potassium salt, 200 mg each, were weighed and put into five sterile test tubes, all labeled No. 1. The dry powder of antibiotic was dissolved in 0.4 ml saliva obtained from each of the five volunteers to constitute an initial concentration of antibiotic concentration of […] in saliva. An aliquot of 0.2 ml of the saliva antibiotic solution was pipetted from tube No. 1 into tube No. 2. After having been thoroughly mixed, 0.2 ml of the content in tube No. 2 was pipetted to tube No. 3, and so forth continuously in succession to make a serial double dilution of penicillin G potassium solutions in saliva through tube No. 13. Finally, the test tubes contained different concentrations of penicillin G potassium in the saliva of five volunteers, as follows.
The mixtures of antibiotic and saliva in the test tubes were incubated at 37° C. One hour later, an aliquot of 0.1 ml was pipetted from the content of each tube, first dropped in the center of a blood agar plate and then spread to the periphery of the plate surface. The plates were incubated aerobically at 37° C. with 5% carbon dioxide in the atmosphere for 18 hours and were examined for bacterial growth.

[2] = Local concentration of penicillin in saliva after a troche containing 50 mg penicillin G; type: in vivo, human; conditions: 50 mg troche, end of one hour; 60 min
Experimental: The local concentration of penicillin in the saliva was determined as follows. […] This loculated pocket of saliva was not swallowed and was not to be diluted with excess saliva from other parts of the mouth for one hour. Two samples were taken for assay to determine the peak and trough local concentrations of penicillin during the one-hour duration of medicinal treatment. At the time when the troche was completely dissolved and one hour later, aliquots of 10 microliters were pipetted from this pocket of saliva solution at the site of medication, representing the peak level and the trough level of antibiotic concentration, and transferred into 10 ml of distilled water to make a 1:1.000 dilution and into 1 ml of distilled water to make a 1:100 dilution, respectively. The diluted saliva antibiotic solutions were passed through a sterile bacteria-filter to remove any bacterial or fungal contaminants of the oral flora.
For determination of the peak concentration, 1 ml of the bacteria-free filtrate was further diluted with 9 ml of nutrient broth to achieve a 1:10,000 dilution of the saliva. Then a serial two-fold dilution was made of this 1:10,000 diluted saliva sample with an equal volume of nutrient broth in a roll of test tubes to obtain a series of 1 ml aliquots of nutrient broth in which the saliva was diluted to 20,000, 40,000, 80,000, 160,000, 320,000, 640,000, 1,280,000 and 2,560,000 folds respectively. […] Thus the final dilutions of the saliva sample were in the range of 40,000 to 5,120,000 folds.
For determining the trough concentration, the entire 1 ml of the 1:100 diluted saliva filtrate was used to make the serial dilutions so that the final dilutions of saliva sample were in the range of 4,000 to 256,000 folds in the final test culture.
As control standards, a series of test tubes containing 1 ml of nutrient broth with varying concentrations of penicillin G potassium salt ranging from 0.1 units to 10 units/ml were similarly mixed with an equal volume of nutrient broth freshly inoculated with the standard tubes of Staphylococcus aureus. Both the test and control standard tubes were incubated at 37° C. for 18 hours. Among the test tubes showing no gross evidence of bacterial growth, the one containing the highest dilution of saliva and the one containing the least amount of penicillin G were considered as having the identical concentration of penicillin, i.e. the MIC of the staphylococcus aureus.

[3] = tested on: microbes in the exudate covering the canker ulcer; test: Congo red negative stain microscopy of canker ulcer exudate (Example VI); type: in vivo, human oral flora; conditions: penicillin G potassium 50 mg four times a day, about 48 hours
Experimental: Before the initiation of treatment, a small amount of exudate was scraped off the grayish-white covering of the ulcer with a toothpick and mixed with a drop of aqueous solution of Congo red for a negative stain smear. After the dried smear was exposed to concentrated hydrochloric acid vapor, the negative-stained microorganisms were examined microscopically.
On day 2, about 48 hours after the medication was initiated, the patients collected an early morning sample of saliva immediately after getting up and submitted it to the laboratory for culture. While in the laboratory, a second sample of the residual exudate covering the ulcer was taken from the patient for a post-treatment follow-up microscopy after Congo red negative staining.

CC1(C)S[C@@H]2[C@H](NC(=O)Cc3ccccc3)C(=O)N2[C@H]1C(=O)O [penicillin G potassium]
bacterial colonies from saliva after topical medication ([1]; 2 mg powder): a few isolated bacterial colonies; also recorded: partial inhibition of growth | bacterial colonies from saliva after topical medication ([1]; 10 mg powder): no bacterial colonies | bacterial colonies from saliva after topical medication ([1]; 20 mg powder): no bacterial colonies | bacterial colonies from saliva after topical medication ([1]; 50 mg powder): no bacterial colonies | bacterial colonies from saliva after topical medication ([1]; 100 mg powder): no bacterial colonies | dose required for total cessation of bacterial growth in small pocket of saliva ([1]; powder, one-hour medication): at least 10 mg | bacterial growth from treated saliva (bacteria in human saliva; 1 mg/ml): Scattered bacterial colonies began to appear; also recorded: the inhibition is not complete; also recorded: A few surviving or uninhibited bacteria grew into colonies | bacterial growth from treated saliva (bacteria in human saliva; 2 mg/ml or above): No bacterial colonies were visible; also recorded: practically inhibits the growth of all of the salivary bacteria; also recorded: either destroyed or totally inhibited | MIC (bacteria in human saliva; Homo sapiens, read-out: concentration sufficient to kill or inhibit practically all salivary bacteria): 1000 to 2000 µg/mL | local trough concentration in saliva [2]: 7.5 to 15 mg/mL | microbes in exudate after topical treatment [3]: Only very rare cocci were found; also recorded: practically eliminated

From patent publication US6248718A, “Lesion-directed dry dosage forms of antibacterial agents for the treatment of acute mucosal infections of the oral cavity” (priority 1999, dated 2001)
